What was measured:
[1] = tested on: third-instar larvae of diamondback moth (Plutella xylostella); assay: Cabbage foliar spray test on diamondback moth larvae (Test Example 11); type: in vivo; conditions: 500 ppm spray, 20 ml/cup on cabbage, after 5 days
Protocol: On the other hand, a cabbage was planted in a polyethylene cup and grown until the third true leaf or the fourth true leaf was developed. The test spray solution was sprayed in a ratio of 20 ml/cup on the cabbage. After the drug solution sprayed on the cabbage was dried, 10 third-instar larvae of diamondback moth (Plutella xylostella) were put on the cabbage. After 5 days, the number of diamondback moths was counted, and a controlling value was calculated by the following equation. […] Letters in the formula have the following meanings. Cb: the number of insects in an untreated section before treatment Cai: the number of insects in an untreated section on observation Tb: the number of insects in a treated section before treatment Tai: the number of insects in a treated section on observation

[2] = tested on: adult common house mosquitos; assay: Spray knockdown test on adult common house mosquitos (Test Examples 5, 6); type: in vivo; conditions: active ingredient 0.02% w/v oil solution, 0.5 ml sprayed, counted after 15 minutes
Protocol: (§1) The formulations of Compounds (2), (7), (48) and (49) of the present invention obtained in Formulation Example 7 were diluted with a mixture solution with a ratio of isopropyl alcohol/deodorized kerosene of 1/9, so as to have a concentration of active ingredient of 0.1% w/v, to prepare a test drug solution.
Ten adult common house mosquitos were released in a polyethylene cup (a bottom diameter of 10.6 cm) which was then capped with 16-mesh nylon gauze. The polyethylene cup was placed on the bottom of a test chamber (bottom: 46 cm×46 cm, height: 70 cm). From a height of 30 cm above the upper surface of the polyethylene cup, 0.5 ml of the test drug solution was sprayed using a spray gun (a spraying pressure of 0.4 kg/cm^2). Immediately after spraying, the cup was taken out from the test container, and after 15 minutes, the number of knockdown insects was counted to obtain a knockdown rate. The knockdown rate was calculated by the following equation.
Knockdown Rate(%)=(Number of Knockdown Insects/Number of Tested Insects)×100
as §1, with “Each of the” for “The”, “(19)” for “(2), (7), (48)”, “(40) to (42)” for “(49)”, “was” for “were”, “0.02%” for “0.1%”, “solution. […]” for “solution.”

SMILES | controlling value [1] [%] | knockdown rate [2] [%]
CCCCC1C(/C=C/C(=O)NCC2CCOCC2)C1(C)C (stereo not drawn) [Compound (43), (E)-N-(tetrahydropyran-4-ylmethyl)-3-(trans-2′-butyl-3′,3′-dimethylcyclopropyl)-2-propenamide] | 100 | 
CCCC[C@@H]1C[C@H]1/C=C/C(=O)NCC1CCOC1 (relative stereo) [Compound (19), (E)-N-(tetrahydrofuran-3-ylmethyl)-3-(trans-2′-butylcyclopropyl)-2-propenamide] |  | ≥ 90

— patent US20150045409A1, “AMIDE COMPOUND AND USE THEREOF FOR PEST CONTROL” (SUMITOMO CHEMICAL COMPANY, LIMITED, priority 2012, published 2015)
